Here are results for one compound from US7109223B2, “Oxazolidin-2-one and thiazolidin-2-one derivatives for use as EP4 receptor agonists in the treatment of glaucoma” (Merck & Co. Inc., priority 2002, dated 2006).

In assay [1] the test system is ROS 17/2.8 rat osteosarcoma cells. In words: Effect on intracellular cAMP in ROS 17/2.8 cells. Type of assay: cell-based. Here is the method: (§1) RCT-1 and RCT-3 are clonal cell lines immortalized by SV-40 large T antigen from cells released from fetal rat calvair by a cmbination collagenase/hyaluronidase digestion. RCT-1 cells, derived from cells released during the first 10 minutes of digestion (fraction I), are cultured in RPMI 1640 medium (BRL) with 10% fetal bovine serum and 0.4 mg/ml G418 (BRL). These cells differentiate and express osteoblastic features upon retinoic acid treatment. RCT-3 cells, immortalized from osteoblast-enriched fraction III cells, are cultured in F-12 medium (BRL) with 5% Fetal bovine serum and 0.4 mg/ml G418. TRAB-11 cells are also immortalized by SV40 large T antigen from adult rat tibia and are cultured in RPMI 1640 medium with 10% FBS and 0.4 mg/ml G418. ROS 17/2.8 rat osteosarcoma cells are cultured in F-12 containing 5% FBS. Osteoblast-enriched (fraction III) primary fetal rat calvaria cells are obtained by collagenase/hyaluronidase digestion of calvariae of 19 day-old rat fetuses. See Rodan et al., Growth stimulation of rat calvaria osteoblastic cells by acidic FGF, Endocrinology, 121, 1919–1923 (1987), which is incorporated by reference herein in its entirety. Cells are released during 30–50 minutes digestion (fraction III) and are cultured in F-12 medium containing 5% FBS. […]

The test system of assay [2] is RCT-3 cells. In words: Effect on intracellular cAMP in RCT-3 cells. Type of assay: cell-based, rat. Here is the method:
as §1

Assay [3] relates to TRAB-11 cells. Description: Effect on intracellular cAMP in TRAB-11 cells. Type of assay: cell-based, rat. Here is the method: as §1
The test system of assay [4] is RP-1 periosteal cells. Description: EP4 and EP2 mRNA levels in RP-1 periosteal cells (Northern blot). Particulars: RP-1 cells. The assay is classed as cell-based, rat. Here is the method: RP-1 periosteal cells are spontaneously immortalized from primary cultures of periosteal cells from tibae of 4-week old Sprague-Dawley rats and are cultured in DMEM (BRL, Gaithersburg, Md.) with 10% fetal bovine serum (JRH Biosciences, Lenexa, Kans.).
(§2) Total RNA is extracted from the tibial metaphysis or diaphysis and calvaria using a guanidinium isothiocyanate-phenol-chloroform method after pulverizing frozen bone samples by a tissue homogenizer. See P. Chomczynski et al., Single-step method of RNA isolation by acid guanidium thiocyanate-phenol-chloroform extraction, Analyt Biochem, 162, 156–159 (1987), which is incorporated by reference herein in its entirety. RNA samples ([…]) are separated on 0.9% agarose/formaldehyde gels and transferred onto nylon membranes (Boehringer Mannheim, Germany). Membranes are prehybridized in Hybrisol I (Oncor, Gaithersburg, Md.) and 0.5 mg/ml sonicated salmon sperm DNA (Boehringer) at 42° C. for 3 hours and are hybridized at 42° C. with rat EP2 and mouse EP4 cDNA probes labeled with [^32P]-dCTP (Amersham, Buckinghamshire, UK) by random priming using the rediprime kit (Amersham). After hybridization, membranes are washed 4 times in 2× SSC+0.1% SDS at room temperature for a total of 1 hour and once with 0.2× SSC+0.1% SDS at 55° C. for 1 hour and then exposed to Kodak XAR 2 film at −70° C. using intensifying screens. After developing the films, bound probes are removed twice with 0.1% SDS at 80° C. and membranes are hybridized with a human GAPDH (Glyceraldehyde 3-Phosphate Dehydrogenase) cDNA probe (purchased from Clontech, Palo Alto, Calif.) for loading control.
PGE2 enhances its own production via upregulation of cyclooxygenase 2 expression in osteoblasts and in bone tissue thus autoamplifying its own effects. PGE2 also increases the levels of EP4 mRNA. RP-1 cells are immortalized from a primary culture of adult rat tibia periosteum is examined. These cells express osteoblast phenotypic markers upon confluence and form mineralized bone matrix when implanted in nude mice. […]

The subject of assay [5] is RCT-3 cells. Description: EP4 mRNA levels in RCT-3 cells (Northern blot). The assay is classed as cell-based, rat. Here is the method: as §1
Assay [6] relates to bone tissue. In words: EP4 and EP2 mRNA levels in vivo in bone tissue (Northern blot). Details: species or system rat. Here is the method:
(§3) For mRNA localization experiments, 5-week old Sprague-Dawley rats (Charles River) are euthanized by CO2, their tibiae and calvariae are excised, cleaned of soft tissues and frozen immediately in liquid nitrogen. For EP4 regulation experiments, 6-week old rats are given a single injection of either vehicle (7% ethanol in sterile water) or an anabolic dose of PGE2 (Cayman Chemical, Ann Arbor, Mich.), 3–6 mg/kg in the same vehicle) intraperitoneally. Animals are euthanized at several time points post-injection and their tibiae and calvariae, as well as samples from lung and kidney tissues are frozen in liquid nitrogen.
as §2, with “control. […]” for “control.”

The subject of assay [7] is bone marrow cells. Description: Localization of EP4 mRNA expression in bone tissue (in situ hybridization). The assay is classed as in vivo, rat. The note with it: rats, single anabolic dose. Here is the method:
as §3
Frozen tibiae are sectioned coronally at […] thickness and sections are mounted on charged slides (Probe On Plus, Fisher Scientific, Springfield, N.J.) and are kept at −70° C. until hybridization. cRNA probes are labeled with ^35S-UTPgS (ICN, Costa Mesa, Calif.) using a Riboprobe II kit (Promega Madison, Wis.). Hybridization is performed overnight at 50° C. […]
In situ hybridization is used in order to localize cells expressing EP4 in bone. In control experiment (vehicle-injected) rats, low expression of EP4 is detected in bone marrow cells. […]

SMILES strings stand for the structures. “Also recorded” adds a separate entry of the source.

On to `CCCCC[C@H](O)/C=C/[C@H]1[C@H](O)CC(=O)[C@@H]1C/C=C\CCCC(=O)O` [PGE2], for which the “effect on intracellular cAMP” value in assay [1] is “no effect”; in assay [2], “markedly induced”; in assay [3] it was “markedly induced”. In addition, the “EP2 mRNA” value in assay [4] is given as “not expressed; also recorded: does not induce”. Besides, the “EP4 mRNA levels” value is “rapidly increases” in assay [4] (10^−6M) and “no effect” in assay [5]. Also, the “time of peak EP4 mRNA levels after treatment” value in assay [4] (10^−6M) amounted to 2 h. Besides, in assay [6] (five-week-old male rats, 3–6 mg/Kg), the “time of peak EP4 mRNA levels in the tibial diaphysis after injection” value was determined as 2 h. In addition, in assay [6] (five-week-old male rats, 3–6 mg/Kg, systemic administration), the “EP4 mRNA levels in the tibial diaphysis” value is “rapidly increased”. In assay [6] (rats), the “EP2 mRNA in bone tissue” value is “does not induce”. The “expression of EP4 in bone marrow cells” value in assay [7] is recorded as “increased”.
